Experimental data published in patent publication US12006313B1, “7-(4-((5-(benzylideneamino)-2-thioxo-1,3,4-thiadiazol-3(2H)-yl)methyl)piperazin-1-yl)-1-cyclopropyl-6-fluoro-4-oxo-1,4-dihydroquinoline-3-carboxylic acid as an anti-inflammatory and anticancer compound” (KING FAISAL UNIVERSITY, priority 2023, dated 2024).

Key:
[1] = tested on: human prostate cancer cells (PC3); assay: Assessment of cytotoxicity by SRB assay, PC3; format: cell-based; details: 72 h
Procedure: (§1) The human prostate cancer cells (PC3) and human osteosarcoma cells (MG-63) were obtained from Nawah Scientific Inc. (Mokatam, Cairo, Egypt) and cultured in DMEM (Dulbecco's modified eagle's medium), Gibco, USA, supplemented with fetal bovine serum (FBS) at a concentration of 10% and 100 U/mL of penicillin and streptomycin (PS). The Cells were incubated at 37° C. in a humidified environment that contained 5% CO2.
(§2) Cells were seeded in 96-well plates as aliquots of 100 μL cell suspension and incubated in a complete media for 24 h. afterward, cells were treated with N′-(1-naphthoyloxy)-2-(benzo[d]thiazol-2-yl)acetimidamide at diverse concentrations ranging from 0.01 μM to 100 μM for 72 h. Then, cells were fixed at 4° C. for one hour with 150 μL of 10% trichloroacetic acid (TCA). After washing the cells five times with distilled water, 70 μL of sulforhodamine (SRB) solution (0.4% w/v) was added and incubated for 10 min at room temperature in a dark place. […] Then, 150 μL of Tris pH 10.5 (10 mM) was added, and the absorbance was measured at 540 nm using a BMG LABTECH®-FLUOstar Omega microplate reader (Ortenberg, Germany). Half maximal inhibitory concentrations (IC50) values were calculated for each experiment using GraphPad Prism 6 software. […]
(§3) The inhibition was calculated using the following equation: Inhibition %=100-Average Viability

[2] = tested on: human osteosarcoma cells (MG-63); assay: Assessment of cytotoxicity by SRB assay, MG-63; format: cell-based; details: MG-63 cells, 72 h
Procedure: as §1, §2, §3

[3] = biological target: Bovine Serum Albumin (Bos taurus, UniProt P02769); assay: Bovine Serum Albumin assay (BSA), inhibition of protein denaturation; format: biochemical; details: 0.4% w/v BSA, pH 6.4, 72° C. for 10 minutes, turbidity at 660 nm
Procedure: In vitro-inflammatory activities of the tested samples were determined using a modified method of the BSA assay reported by Williams et al. BSA solution (0.4%, w/v) was prepared in Tris Buffered Saline. The pH was adjusted to 6.4 with glacial acetic acid. Different dilutions of 20, 40, 60, 80, and 100 μg/mL of the stock solutions were added to test tubes containing 1 mL of 0.4%, w/v BSA buffer solution. Both negative (solvent) and positive (aspirin) controls were assayed in a similar manner. The solutions were then heated in a water bath at 72° C. for 10 minutes and cooled for 20 minutes under laboratory conditions. The turbidity of the solutions (level of protein precipitation) was measured at 660 nm in Spectrophotometer (V-770 UV-Visible/NIR Spectrophotometer).
The percentage inhibition of precipitation (protein denaturation) was determined relative to the negative control using the following equation:
[formula] % Anti-Denaturation Activity=% Inhibition of Protein Denaturation=% Anti-inflammatory Activity

Bovine Serum Albumin, sequence (P02769 25-607): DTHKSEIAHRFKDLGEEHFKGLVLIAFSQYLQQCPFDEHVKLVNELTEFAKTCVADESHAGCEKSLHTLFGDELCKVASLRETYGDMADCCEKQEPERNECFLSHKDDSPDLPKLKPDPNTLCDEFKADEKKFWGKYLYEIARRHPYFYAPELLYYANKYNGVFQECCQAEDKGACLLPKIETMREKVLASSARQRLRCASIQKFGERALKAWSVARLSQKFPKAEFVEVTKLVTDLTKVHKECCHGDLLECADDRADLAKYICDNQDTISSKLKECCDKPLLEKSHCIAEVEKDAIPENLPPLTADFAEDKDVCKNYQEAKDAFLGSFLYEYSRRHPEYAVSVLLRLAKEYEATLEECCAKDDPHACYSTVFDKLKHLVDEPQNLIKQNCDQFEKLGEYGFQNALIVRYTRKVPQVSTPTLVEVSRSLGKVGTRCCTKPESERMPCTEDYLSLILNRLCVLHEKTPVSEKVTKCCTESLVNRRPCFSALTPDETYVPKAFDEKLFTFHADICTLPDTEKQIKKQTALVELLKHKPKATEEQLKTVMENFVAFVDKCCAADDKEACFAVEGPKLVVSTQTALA

in vitro anti-inflammatory activity (inhibition of protein denaturation) [3]: considerable anti-inflammatory effect | melting point: 241 to 243 °C
Structure (SMILES): O=C(O)c1cn(C2CC2)c2cc(N3CCN(Cn4nc(/N=C/c5ccccc5)sc4=S)CC3)c(F)cc2c1=O [7-(4-((5-(benzylideneamino)-2-thioxo-1,3,4-thiadiazol-3(2H)-yl)methyl)piperazin-1-yl)-1-cyclopropyl-6-fluoro-4-oxo-1,4-dihydroquinoline-3-carboxylic acid]
antiproliferative activity [1]: excellent antiproliferative activities | antiproliferative activity [2]: excellent antiproliferative activities
